The kinase profiling compilation of Christmann-Franck et al. (2016)

Assays:
Assay in all cases: KINOMEscan competition binding
Settings in all cases: compound 10.0 µM
HIPK1 (human) = HIPK1 (human) (UniProt Q86Z02)
PRKACA (human) = PRKACA (human) (UniProt P17612)
EPHB3 (human) = EPHB3 (human) (UniProt P54753)
MAPK1 (human) = MAPK1 (human) (UniProt P28482)
CDKL2 (human) = CDKL2 (human) (UniProt Q92772)
CDK7 (human) = CDK7 (human) (UniProt P50613)
EPHA3 (human) = EPHA3 (human) (UniProt P29320)
PIP4K2B (human) = PIP4K2B (human) (UniProt P78356)
CLK3 (human) = CLK3 (human) (UniProt P49761)
MARK1 (human) = MARK1 (human) (UniProt Q9P0L2)
NEK6 (human) = NEK6 (human) (UniProt Q9HC98)
IRAK3 (human) = IRAK3 (human) (UniProt Q9Y616)
CaMK1 (human) = CaMK1 (human) (UniProt Q14012)
MUSK (human) = MUSK (human) (UniProt O15146)
DAPK3 (human) = DAPK3 (human) (UniProt O43293)
ROS1 (human) = ROS1 (human) (UniProt P08922)
MAPK4 (human) = MAPK4 (human) (UniProt P31152)
CSNK1E (human) = CSNK1E (human) (UniProt P49674)
RPS6KA6 KD1 (human) = RPS6KA6 KD1 (human) (UniProt Q9UK32)
PRKACB (human) = PRKACB (human) (UniProt P22694)
RIOK2 (human) = RIOK2 (human) (UniProt Q9BVS4)
TLK1 (human) = TLK1 (human) (UniProt Q9UKI8)
MYLK2 (human) = MYLK2 (human) (UniProt Q9H1R3)
MAP3K9 (human) = MAP3K9 (human) (UniProt P80192)
[1] = biological target: JAK2 JH1 catalytic (human) (UniProt O60674)
TSSK1B (human) = TSSK1B (human) (UniProt Q9BXA7)
MAP4K5 (human) = MAP4K5 (human) (UniProt Q9Y4K4)
EPHB1 (human) = EPHB1 (human) (UniProt P54762)
AURKA (human) = AURKA (human) (UniProt O14965)
DDR2 (human) = DDR2 (human) (UniProt Q16832)
PIM1 (human) = PIM1 (human) (UniProt P11309)
MAPK12 (human) = MAPK12 (human) (UniProt P53778)
EIF2AK2 (human) = EIF2AK2 (human) (UniProt P19525)
RIPK2 (human) = RIPK2 (human) (UniProt O43353)
CDC42BPB (human) = CDC42BPB (human) (UniProt Q9Y5S2)
BMPR2 (human) = BMPR2 (human) (UniProt Q13873)
NEK7 (human) = NEK7 (human) (UniProt Q8TDX7)
PHKG2 (human) = PHKG2 (human) (UniProt P15735)
[2] = biological target: JAK1 JH1 catalytic (human) (UniProt P23458)
SRC (human) = SRC (human) (UniProt P12931)

Chain of MAP4K5 (human) (Q9Y4K4 whole entry, looked up): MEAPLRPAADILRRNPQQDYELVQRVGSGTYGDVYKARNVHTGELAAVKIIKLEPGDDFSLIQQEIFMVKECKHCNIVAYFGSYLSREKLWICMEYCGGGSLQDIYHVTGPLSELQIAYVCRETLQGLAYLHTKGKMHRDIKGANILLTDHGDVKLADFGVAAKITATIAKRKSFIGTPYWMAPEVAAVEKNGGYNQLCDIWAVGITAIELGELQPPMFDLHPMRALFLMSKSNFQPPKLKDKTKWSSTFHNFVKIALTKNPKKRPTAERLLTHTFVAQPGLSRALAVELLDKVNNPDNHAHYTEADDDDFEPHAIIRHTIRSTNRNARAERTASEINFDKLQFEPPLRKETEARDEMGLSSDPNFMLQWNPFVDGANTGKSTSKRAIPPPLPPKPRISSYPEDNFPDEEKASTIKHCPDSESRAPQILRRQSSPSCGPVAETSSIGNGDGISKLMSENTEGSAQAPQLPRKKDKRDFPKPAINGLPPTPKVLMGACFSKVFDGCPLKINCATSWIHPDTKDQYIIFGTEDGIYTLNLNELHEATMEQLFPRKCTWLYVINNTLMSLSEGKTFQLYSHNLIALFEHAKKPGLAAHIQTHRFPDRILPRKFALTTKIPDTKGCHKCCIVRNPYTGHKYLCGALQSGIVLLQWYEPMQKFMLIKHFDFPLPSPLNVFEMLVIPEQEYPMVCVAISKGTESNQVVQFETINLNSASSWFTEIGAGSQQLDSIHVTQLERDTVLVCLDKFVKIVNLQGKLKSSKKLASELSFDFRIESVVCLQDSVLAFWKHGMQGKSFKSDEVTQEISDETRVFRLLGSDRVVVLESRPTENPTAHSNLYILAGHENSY
Chain of TSSK1B (human) (Q9BXA7 whole entry, looked up): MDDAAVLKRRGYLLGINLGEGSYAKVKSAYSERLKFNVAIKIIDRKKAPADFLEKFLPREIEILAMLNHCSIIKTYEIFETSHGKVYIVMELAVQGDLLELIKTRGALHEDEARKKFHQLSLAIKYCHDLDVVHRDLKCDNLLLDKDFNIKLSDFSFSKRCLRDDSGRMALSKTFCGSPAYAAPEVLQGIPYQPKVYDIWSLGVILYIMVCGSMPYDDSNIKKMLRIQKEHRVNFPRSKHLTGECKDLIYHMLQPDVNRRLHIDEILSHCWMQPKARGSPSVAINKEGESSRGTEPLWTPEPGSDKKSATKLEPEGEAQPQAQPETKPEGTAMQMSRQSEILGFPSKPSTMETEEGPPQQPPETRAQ
Chain of CaMK1 (human) (Q14012 whole entry, looked up): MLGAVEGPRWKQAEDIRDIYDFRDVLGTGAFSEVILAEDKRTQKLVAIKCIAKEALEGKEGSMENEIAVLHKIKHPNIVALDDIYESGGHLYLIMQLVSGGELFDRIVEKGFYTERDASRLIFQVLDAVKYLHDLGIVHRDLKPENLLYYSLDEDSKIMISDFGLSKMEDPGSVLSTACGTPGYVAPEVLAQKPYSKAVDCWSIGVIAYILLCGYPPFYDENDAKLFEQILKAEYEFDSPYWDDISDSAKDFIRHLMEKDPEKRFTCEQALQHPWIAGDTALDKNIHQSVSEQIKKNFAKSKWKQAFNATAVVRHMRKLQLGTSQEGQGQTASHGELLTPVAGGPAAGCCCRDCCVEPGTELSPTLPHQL
Chain of CDC42BPB (human) (Q9Y5S2 whole entry, looked up): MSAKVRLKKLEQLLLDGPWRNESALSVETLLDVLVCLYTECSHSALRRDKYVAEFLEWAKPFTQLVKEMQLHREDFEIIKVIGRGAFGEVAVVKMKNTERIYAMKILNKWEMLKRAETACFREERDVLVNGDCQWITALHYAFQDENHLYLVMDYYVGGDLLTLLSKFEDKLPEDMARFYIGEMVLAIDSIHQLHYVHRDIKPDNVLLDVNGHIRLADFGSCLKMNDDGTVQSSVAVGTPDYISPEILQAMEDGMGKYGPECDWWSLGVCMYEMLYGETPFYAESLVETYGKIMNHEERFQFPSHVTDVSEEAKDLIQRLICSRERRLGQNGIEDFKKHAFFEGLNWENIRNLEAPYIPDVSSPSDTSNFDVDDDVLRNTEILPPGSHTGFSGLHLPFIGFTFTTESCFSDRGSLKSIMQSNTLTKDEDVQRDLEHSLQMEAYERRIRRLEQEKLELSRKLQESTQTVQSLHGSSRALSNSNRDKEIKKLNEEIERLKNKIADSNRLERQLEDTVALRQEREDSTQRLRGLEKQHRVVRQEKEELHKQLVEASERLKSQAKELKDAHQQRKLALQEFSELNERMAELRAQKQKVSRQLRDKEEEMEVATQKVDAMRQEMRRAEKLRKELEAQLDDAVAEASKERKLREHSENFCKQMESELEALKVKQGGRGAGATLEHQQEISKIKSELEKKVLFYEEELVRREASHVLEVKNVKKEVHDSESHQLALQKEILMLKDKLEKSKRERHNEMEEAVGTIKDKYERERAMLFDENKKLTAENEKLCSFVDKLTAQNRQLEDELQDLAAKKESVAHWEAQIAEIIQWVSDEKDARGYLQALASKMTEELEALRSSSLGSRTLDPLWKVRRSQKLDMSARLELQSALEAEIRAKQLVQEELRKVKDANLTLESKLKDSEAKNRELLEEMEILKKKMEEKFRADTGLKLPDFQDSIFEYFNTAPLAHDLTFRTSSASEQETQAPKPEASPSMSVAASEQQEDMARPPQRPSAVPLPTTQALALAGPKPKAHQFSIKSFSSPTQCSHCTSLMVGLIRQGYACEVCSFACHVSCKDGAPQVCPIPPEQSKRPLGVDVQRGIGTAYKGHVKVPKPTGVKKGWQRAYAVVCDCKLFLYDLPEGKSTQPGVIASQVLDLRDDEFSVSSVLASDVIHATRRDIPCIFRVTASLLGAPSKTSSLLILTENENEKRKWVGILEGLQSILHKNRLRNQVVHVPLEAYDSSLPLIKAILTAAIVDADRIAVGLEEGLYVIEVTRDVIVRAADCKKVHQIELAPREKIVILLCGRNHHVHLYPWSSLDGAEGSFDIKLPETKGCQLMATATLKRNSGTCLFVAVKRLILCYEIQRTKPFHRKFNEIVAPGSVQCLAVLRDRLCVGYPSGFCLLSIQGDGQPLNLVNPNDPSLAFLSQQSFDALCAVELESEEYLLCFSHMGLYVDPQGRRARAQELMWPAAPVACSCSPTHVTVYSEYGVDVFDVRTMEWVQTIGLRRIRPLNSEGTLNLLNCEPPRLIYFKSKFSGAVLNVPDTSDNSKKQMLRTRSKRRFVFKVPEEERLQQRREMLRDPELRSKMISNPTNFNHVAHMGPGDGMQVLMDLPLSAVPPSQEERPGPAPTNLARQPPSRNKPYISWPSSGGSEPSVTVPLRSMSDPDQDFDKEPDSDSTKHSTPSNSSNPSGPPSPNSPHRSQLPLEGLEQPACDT
Chain of JAK2 JH1 catalytic (human) (O60674 whole entry, looked up): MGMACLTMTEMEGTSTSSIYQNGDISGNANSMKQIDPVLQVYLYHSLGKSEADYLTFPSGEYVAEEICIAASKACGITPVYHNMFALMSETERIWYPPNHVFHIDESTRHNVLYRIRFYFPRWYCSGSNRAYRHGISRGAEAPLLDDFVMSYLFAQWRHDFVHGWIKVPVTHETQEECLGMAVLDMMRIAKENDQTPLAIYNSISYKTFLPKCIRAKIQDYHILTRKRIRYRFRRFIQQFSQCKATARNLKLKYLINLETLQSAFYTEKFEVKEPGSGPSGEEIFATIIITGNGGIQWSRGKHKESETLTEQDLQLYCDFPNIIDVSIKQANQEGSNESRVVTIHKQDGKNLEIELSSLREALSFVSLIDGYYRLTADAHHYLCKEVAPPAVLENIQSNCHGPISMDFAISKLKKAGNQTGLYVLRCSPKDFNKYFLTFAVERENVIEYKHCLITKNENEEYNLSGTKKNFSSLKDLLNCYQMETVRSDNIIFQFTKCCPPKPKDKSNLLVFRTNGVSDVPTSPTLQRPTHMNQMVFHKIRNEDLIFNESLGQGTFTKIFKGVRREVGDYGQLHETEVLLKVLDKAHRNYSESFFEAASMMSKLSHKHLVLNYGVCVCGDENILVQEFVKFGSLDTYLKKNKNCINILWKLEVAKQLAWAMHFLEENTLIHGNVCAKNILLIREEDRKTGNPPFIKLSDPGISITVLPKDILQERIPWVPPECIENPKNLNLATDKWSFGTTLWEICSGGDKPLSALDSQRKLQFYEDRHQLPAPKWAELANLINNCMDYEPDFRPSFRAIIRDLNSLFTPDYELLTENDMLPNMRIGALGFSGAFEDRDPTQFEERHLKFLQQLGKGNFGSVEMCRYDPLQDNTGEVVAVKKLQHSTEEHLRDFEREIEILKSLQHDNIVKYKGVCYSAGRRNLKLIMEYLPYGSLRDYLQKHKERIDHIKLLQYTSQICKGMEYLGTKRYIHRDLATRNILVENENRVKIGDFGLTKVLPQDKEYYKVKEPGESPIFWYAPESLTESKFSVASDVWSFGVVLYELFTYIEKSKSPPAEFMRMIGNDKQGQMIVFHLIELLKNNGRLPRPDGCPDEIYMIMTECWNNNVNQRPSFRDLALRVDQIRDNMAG
Chain of NEK6 (human) (Q9HC98 whole entry, looked up): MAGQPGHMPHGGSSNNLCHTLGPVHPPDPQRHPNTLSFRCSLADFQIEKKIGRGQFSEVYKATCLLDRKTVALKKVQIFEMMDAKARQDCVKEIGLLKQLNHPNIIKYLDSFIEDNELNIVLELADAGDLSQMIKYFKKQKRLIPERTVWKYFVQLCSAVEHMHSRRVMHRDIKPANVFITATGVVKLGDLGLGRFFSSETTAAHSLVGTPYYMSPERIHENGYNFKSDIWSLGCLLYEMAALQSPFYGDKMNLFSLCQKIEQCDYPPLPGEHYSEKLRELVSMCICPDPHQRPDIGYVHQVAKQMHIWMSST
Chain of PIM1 (human) (P11309 whole entry, looked up): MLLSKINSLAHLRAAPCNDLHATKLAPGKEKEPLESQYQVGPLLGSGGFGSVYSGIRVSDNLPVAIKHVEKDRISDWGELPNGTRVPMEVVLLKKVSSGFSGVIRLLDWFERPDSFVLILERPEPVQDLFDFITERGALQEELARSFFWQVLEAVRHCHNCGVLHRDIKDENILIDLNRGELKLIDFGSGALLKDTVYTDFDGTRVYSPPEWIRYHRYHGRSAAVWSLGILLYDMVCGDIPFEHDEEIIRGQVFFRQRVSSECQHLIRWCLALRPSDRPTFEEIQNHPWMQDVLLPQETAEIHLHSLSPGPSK

Structure (SMILES)	kinase still bound, per cent of control (HIPK1 (human)) [%]	kinase still bound, per cent of control (PRKACA (human)) [%]	kinase still bound, per cent of control (EPHB3 (human)) [%]	kinase still bound, per cent of control (MAPK1 (human)) [%]	kinase still bound, per cent of control (CDKL2 (human)) [%]	kinase still bound, per cent of control (CDK7 (human)) [%]	kinase still bound, per cent of control (EPHA3 (human)) [%]	kinase still bound, per cent of control (PIP4K2B (human)) [%]	kinase still bound, per cent of control (CLK3 (human)) [%]	kinase still bound, per cent of control (NEK6 (human)) [%]	kinase still bound, per cent of control (IRAK3 (human)) [%]	kinase still bound, per cent of control (CaMK1 (human)) [%]	kinase still bound, per cent of control (MUSK (human)) [%]	kinase still bound, per cent of control (DAPK3 (human)) [%]	kinase still bound, per cent of control (ROS1 (human)) [%]	kinase still bound, per cent of control (MAPK4 (human)) [%]	kinase still bound, per cent of control (CSNK1E (human)) [%]	kinase still bound, per cent of control (RPS6KA6 KD1 (human)) [%]	kinase still bound, per cent of control (PRKACB (human)) [%]	kinase still bound, per cent of control (TLK1 (human)) [%]	further results
O=C(O)c1ccc(Nc2ncc3c(n2)-c2ccc(Cl)cc2C(c2c(F)cccc2F)=NC3)cc1	14	47	29	100	86	77	15	100	14	100	15	78	93	70	23	66	100	36	58	77	kinase still bound, per cent of control (MARK1 (human)): 100%; kinase still bound, per cent of control (RIOK2 (human)): 99%; kinase still bound, per cent of control (MYLK2 (human)): 100%; kinase still bound, per cent of control (MAP3K9 (human)): 70%; kinase still bound, per cent of control [1]: 100%; kinase still bound, per cent of control (TSSK1B (human)): 90%; kinase still bound, per cent of control (MAP4K5 (human)): 96%; kinase still bound, per cent of control (EPHB1 (human)): 2.2%; kinase still bound, per cent of control (AURKA (human)): 0.5%; kinase still bound, per cent of control (DDR2 (human)): 3.6%; kinase still bound, per cent of control (PIM1 (human)): 71%; kinase still bound, per cent of control (MAPK12 (human)): 97%; kinase still bound, per cent of control (EIF2AK2 (human)): 100%; kinase still bound, per cent of control (RIPK2 (human)): 97%; kinase still bound, per cent of control (CDC42BPB (human)): 69%; kinase still bound, per cent of control (BMPR2 (human)): 26%; kinase still bound, per cent of control (NEK7 (human)): 100%; kinase still bound, per cent of control (PHKG2 (human)): 73%; kinase still bound, per cent of control [2]: 90%
COc1cc(N2CCN(C)CC2)ccc1Nc1nc(N)c(C(=O)c2c(Cl)cccc2Cl)s1	69	91	0	100	93	2.8	82	100	2	100	90	0.75	90	78	11	90	56	79	100	86	kinase still bound, per cent of control (RIOK2 (human)): 100%; kinase still bound, per cent of control (MYLK2 (human)): 87%; kinase still bound, per cent of control (MAP3K9 (human)): 100%; kinase still bound, per cent of control [1]: 80%; kinase still bound, per cent of control (TSSK1B (human)): 87%; kinase still bound, per cent of control (MAP4K5 (human)): 78%; kinase still bound, per cent of control (SRC (human)): 100%; kinase still bound, per cent of control (EPHB1 (human)): 87%; kinase still bound, per cent of control (AURKA (human)): 100%; kinase still bound, per cent of control (DDR2 (human)): 100%; kinase still bound, per cent of control (PIM1 (human)): 100%; kinase still bound, per cent of control (MAPK12 (human)): 100%; kinase still bound, per cent of control (EIF2AK2 (human)): 75%; kinase still bound, per cent of control (RIPK2 (human)): 70%; kinase still bound, per cent of control (CDC42BPB (human)): 100%; kinase still bound, per cent of control (BMPR2 (human)): 82%; kinase still bound, per cent of control (NEK7 (human)): 100%; kinase still bound, per cent of control (PHKG2 (human)): 43%; kinase still bound, per cent of control [2]: 100%
O=C(NOC[C@H](O)CO)c1ccc(F)c(F)c1Nc1ccc(I)cc1F	91	72	89	100	87	83	100	100	100	100	100	98	68	100	92	77	100	75	98	89	kinase still bound, per cent of control (MARK1 (human)): 100%; kinase still bound, per cent of control (MYLK2 (human)): 100%; kinase still bound, per cent of control (MAP3K9 (human)): 95%; kinase still bound, per cent of control [1]: 100%; kinase still bound, per cent of control (TSSK1B (human)): 100%; kinase still bound, per cent of control (MAP4K5 (human)): 69%; kinase still bound, per cent of control (SRC (human)): 69%; kinase still bound, per cent of control (EPHB1 (human)): 100%; kinase still bound, per cent of control (AURKA (human)): 100%; kinase still bound, per cent of control (DDR2 (human)): 100%; kinase still bound, per cent of control (PIM1 (human)): 100%; kinase still bound, per cent of control (MAPK12 (human)): 100%; kinase still bound, per cent of control (EIF2AK2 (human)): 100%; kinase still bound, per cent of control (RIPK2 (human)): 66%; kinase still bound, per cent of control (CDC42BPB (human)): 83%; kinase still bound, per cent of control (BMPR2 (human)): 92%; kinase still bound, per cent of control (NEK7 (human)): 95%; kinase still bound, per cent of control (PHKG2 (human)): 93%; kinase still bound, per cent of control [2]: 78%
